# Entries after “also recorded” stand apart in the source; their conditions may differ. Like-named read-outs stand apart in the source and are kept apart here.
# Legend:
# full-length human Cal1 [1] = target: T1, full-length human Cal1 (Homo sapiens (Human), UniProt P07384); assay: Calpain inhibition FRET assay; format: biochemical; conditions: for IC50: Table 2, approximate IC50, read-out: Cal I IC50
# Protocol: Calpain activity was measured using full-length human Cal1 in the presence of a FRET substrate. IC50 values were approximated by co-incubation of varying concentrations of the appropriate inhibitor (10, 100, 500, 1000 nM) in the presence of the FRET substrate (DABCYL)TPLK-SPPSPR-(EDANS) (SEQ ID NO: 5) and activation buffer. […] A peptide inhibitor, Z-LLY-FMK (SEQ ID NO: 6), was used as a positive control.
# The Calbiochem InnoZyme activity kit was used for measuring the inhibition effect inhibitors on human erythrocyte calpain 1 activity. […] 20 μM of the FRET substrate, 10 nM of native Cal1, and 20 μM TCEP (reducing agent) were added to the reaction mixture containing assay buffer (Tris [10 mM], NaCl [100 mM], pH 7.4). Cal1 was activated by the addition of 10 μM calcium. Cleavage of the scissile bond amide bond, K-S, releases the fluorophore (EDANS) from the internal quenching molecule (DABCYL), resulting in an increase in fluorescence measured at 320 nm excitation and 480 nm emission wave lengths for 30 min. Each inhibitor was added to the reaction mixture at varying concentrations (10 nM, 100 nM, 1 μM, and 10 μM) to detect inhibition of Cal1 and reduction in fluorescence was measured by 96 well-plate reader. Approximate IC50 values of each compound were generated using linear regression within Graphpad Prism Software.
# full-length human Cal1 [2] = target: T1, full-length human Cal1; assay: Calpain inhibition FRET assay; format: biochemical; conditions: Table 3, 20 min incubation, FRET substrate
# [3] = >1: inhibition not quantifiable at 1 μM
# T1 sequence (P07384 whole entry): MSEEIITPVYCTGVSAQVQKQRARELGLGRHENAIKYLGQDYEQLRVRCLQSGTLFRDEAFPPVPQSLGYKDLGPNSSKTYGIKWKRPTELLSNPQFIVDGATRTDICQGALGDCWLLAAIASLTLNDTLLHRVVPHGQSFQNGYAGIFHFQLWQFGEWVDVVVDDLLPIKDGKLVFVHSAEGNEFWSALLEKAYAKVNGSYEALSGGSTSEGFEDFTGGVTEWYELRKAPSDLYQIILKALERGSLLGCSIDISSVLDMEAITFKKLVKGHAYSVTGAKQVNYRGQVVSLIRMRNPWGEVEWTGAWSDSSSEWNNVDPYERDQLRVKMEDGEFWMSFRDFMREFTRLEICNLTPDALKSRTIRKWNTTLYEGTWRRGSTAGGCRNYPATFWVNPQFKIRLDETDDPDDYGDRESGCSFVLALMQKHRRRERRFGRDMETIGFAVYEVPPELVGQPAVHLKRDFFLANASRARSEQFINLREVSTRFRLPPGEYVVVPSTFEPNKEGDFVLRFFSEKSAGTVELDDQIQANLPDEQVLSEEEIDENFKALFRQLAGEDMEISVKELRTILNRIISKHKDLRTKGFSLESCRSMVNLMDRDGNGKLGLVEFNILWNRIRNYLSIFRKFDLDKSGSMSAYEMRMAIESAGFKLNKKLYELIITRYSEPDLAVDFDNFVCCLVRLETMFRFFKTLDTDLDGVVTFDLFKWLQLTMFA
# T1 sequence (P04632 whole entry partner): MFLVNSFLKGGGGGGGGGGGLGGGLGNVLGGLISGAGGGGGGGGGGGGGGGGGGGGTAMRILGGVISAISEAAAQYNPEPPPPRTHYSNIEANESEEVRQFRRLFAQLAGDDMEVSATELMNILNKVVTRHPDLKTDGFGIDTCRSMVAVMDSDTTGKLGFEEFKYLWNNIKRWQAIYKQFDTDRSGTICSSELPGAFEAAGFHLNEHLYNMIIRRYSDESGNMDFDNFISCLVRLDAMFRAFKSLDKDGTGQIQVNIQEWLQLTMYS
Structure (SMILES),IC50 (full-length human Cal1 [1]),other results
"CC(C)C[C@H](NC(=O)[C@H]1O[C@@H]1C(=O)O)C(=O)Nc1ccccc1 [Compound 22, (2S,3S)-3-((S)-4-methyl-1-oxo-1-(phenylamino)pentan-2-ylcarbamoyl)oxirane-2-carboxylic acid]",100 nM,
"CC(C)C[C@H](NC(=O)[C@H]1O[C@@H]1C(=O)O)C(=O)Nc1c(F)cccc1F [Compound 23a, (2S,3S)-3-((S)-1-(2,6-difluorophenylamino)-4-methyl-1-oxopentan-2-ylcarbamoyl)oxirane-2-carboxylic acid]",50 nM,IC50 (full-length human Cal1 [2]): 100 nM
"CC(C)C[C@H](NC(=O)[C@@H]1O[C@H]1C(=O)O)C(=O)Nc1c(F)cccc1F [Compound 23b, (2R,3R)-3-((S)-1-(2,6-difluorophenylamino)-4-methyl-1-oxopentan-2-ylcarbamoyl)oxirane-2-carboxylic acid]",> 1000 nM,IC50 (full-length human Cal1 [2]; [3]): > 1000 nM; Cal1 inhibition (in words) (full-length human Cal1 [1]): not observed
"O=C(Nc1ccccc1)[C@H](Cc1cnc[nH]1)NC(=O)[C@H]1O[C@@H]1C(=O)O [Compound 28, (2S,3S)-3-((S)-3-(1H-imidazol-4-yl)-1-oxo-1-(phenylamino)propan-2-ylcarbamoyl)oxirane-2-carboxylic acid]",5000 nM,
"Cc1cc(C)c(NC(=O)[C@H](Cc2cnc[nH]2)NC(=O)[C@H]2O[C@@H]2C(=O)O)c(C)c1 [Compound 29, (2S,3S)-3-((S)-3-(1H-imidazol-5-yl)-1-(mesitylamino)-1-oxopropan-2-ylcarbamoyl)oxirane-2-carboxylic acid]",5000 nM,
"O=C(Nc1nc(-c2ccc(F)cc2)cs1)[C@H](Cc1c[nH]cn1)NC(=O)[C@@H]1O[C@H]1C(=O)O [Compound 30b, (2R,3R)-3-((S)-1-(4-(4-fluorophenyl)thiazol-2-ylamino)-3-(1H-imidazol-4-yl)-1-oxopropan-2-ylcarbamoyl)oxirane-2-carboxylic acid]",> 1000 nM,IC50 (full-length human Cal1 [2]; [3]): > 1000 nM
"O=C(Nc1nc2ccc(F)cc2s1)[C@H](Cc1c[nH]cn1)NC(=O)[C@H]1O[C@@H]1C(=O)O [Compound 31a, (2S,3S)-3-((S)-1-(6-fluorobenzo[d]thiazol-2-ylamino)-3-(1H-imidazol-4-yl)-1-oxopropan-2-ylcarbamoyl)oxirane-2-carboxylic acid]",535 nM,
"O=C(Nc1nc2ccc(F)cc2s1)[C@H](Cc1c[nH]cn1)NC(=O)[C@@H]1O[C@H]1C(=O)O [Compound 31b, (2R,3R)-3-((S)-1-(6-fluorobenzo[d]thiazol-2-ylamino)-3-(1H-imidazol-4-yl)-1-oxopropan-2-ylcarbamoyl)oxirane-2-carboxylic acid]",> 1000 nM,IC50 (full-length human Cal1 [2]; [3]): > 1000 nM
"O=C(Nc1ccccc1)[C@H](Cc1cscn1)NC(=O)[C@H]1O[C@@H]1C(=O)O [Compound 32, (2S,3S)-3-((S)-1-oxo-1-(phenylamino)-3-(thiazol-4-yl)propan-2-ylcarbamoyl)oxirane-2-carboxylic acid]",,IC50 (full-length human Cal1 [2]; [3]): 2500 nM
"Cn1cncc1C[C@H](NC(=O)[C@H]1O[C@@H]1C(=O)O)C(=O)Nc1nc(-c2ccc(F)cc2)cs1 [Compound 35, (2S,3S)-3-((S)-1-(4-(4-fluorophenyl)thiazol-2-ylamino)-3-(1-methyl-1H-imidazol-5-yl)-1-oxopropan-2-ylcarbamoyl)oxirane-2-carboxylic acid]",5000 nM,
"O=C(NCc1cn(-c2ccccc2)nn1)[C@H](Cc1cscn1)NC(=O)[C@H]1O[C@@H]1C(=O)O [Compound 49, (2S,3S)-3-((S)-1-oxo-1-((1-phenyl-1H-1,2,3-triazol-4-yl)methylamino)-3-(thiazol-4-yl)propan-2-ylcarbamoyl)oxirane-2-carboxylic acid]",,IC50 (full-length human Cal1 [2]; [3]): 1000 nM
"O=C(NCc1cn(-c2ccc(S(=O)(=O)N3CCCCC3)cc2)nn1)[C@H](Cc1cscn1)NC(=O)[C@H]1O[C@@H]1C(=O)O [Compound 51, (2S,3S)-3-((S)-1-oxo-1-((1-(4-(piperidin-1-ylsulfonyl)phenyl)-1H-1,2,3-triazol-4-yl)methylamino)-3-(thiazol-4-yl)propan-2-ylcarbamoyl)oxirane-2-carboxylic acid]",,IC50 (full-length human Cal1 [2]; [3]): 1500 nM
"O=C(NCc1cn(-c2ccc3c(c2)OCO3)nn1)[C@H](Cc1cscn1)NC(=O)[C@H]1O[C@@H]1C(=O)O [Compound 52, (2S,3S)-3-((S)-1-((1-(benzo[d][1,3]dioxol-5-yl)-1H-1,2,3-triazol-4-yl)methylamino)-1-oxo-3-(thiazol-4-yl)propan-2-ylcarbamoyl)oxirane-2-carboxylic acid]",400 nM,Cal1 inhibition (in words) (full-length human Cal1 [1]): potent activity
"NS(=O)(=O)c1ccc(-n2cc(CNC(=O)[C@H](Cc3cscn3)NC(=O)[C@H]3O[C@@H]3C(=O)O)nn2)cc1 [Compound 53, (2S,3S)-3-((S)-1-oxo-1-((1-(4-sulfamoylphenyl)-1H-1,2,3-triazol-4-yl)methylamino)-3-(thiazol-4-yl)propan-2-ylcarbamoyl)oxirane-2-carboxylic acid]",> 1000 nM,IC50 (full-length human Cal1 [2]; [3]): > 1000 nM; Cal1 inhibition (in words) (full-length human Cal1 [1]): relatively high IC50 values
"O=C(NCc1cn(-c2cc(C(F)(F)F)cc(C(F)(F)F)c2)nn1)[C@H](Cc1cscn1)NC(=O)[C@H]1O[C@@H]1C(=O)O [Compound 54, (2S,3S)-3-((S)-1-((1-(3,5-bis(trifluoromethyl)phenyl)-1H-1,2,3-triazol-4-yl)methylamino)-1-oxo-3-(thiazol-4-yl)propan-2-ylcarbamoyl)oxirane-2-carboxylic acid]",> 1000 nM,IC50 (full-length human Cal1 [2]; [3]): > 1000 nM; Cal1 inhibition (in words) (full-length human Cal1 [1]): relatively high IC50 values; also recorded: weak activity
CCOC(=O)[C@H]1OC1C(=O)N[C@@H](CC(C)C)C(=O)NCCCCNC(=O)CCCC[C@@H]1SC[C@@H]2NC(=O)N[C@@H]21 (stereo partly drawn) [Compound 59],> 1000 nM,
C#CCNC(=O)[C@H](CC(C)C)NC(=O)C1OC1c1ccccc1 (stereo partly drawn) [Compound 60],> 1000 nM,
CC(C)C[C@H](NC(=O)C1OC1c1ccccc1)C(=O)NCCCCNC(=O)CCCCC1CCSS1 (stereo partly drawn) [Compound 62],> 1000 nM,
CCOC(=O)[C@H]1OC1C(=O)N[C@@H](CC(C)C)C(=O)NCCCCNS(=O)(=O)c1ccc(F)cc1 (stereo partly drawn) [Compound 63],> 1000 nM,
CC(C)C[C@H](NC(=O)C1OC1c1ccccc1)C(=O)NCCCCNC(=N)N (stereo partly drawn) [Compound 65],> 1000 nM,
CC(C)C[C@H](NC(=O)[C@H]1O[C@@H]1C(=O)O)C(=O)NCCCCNS(=O)(=O)c1ccc(F)cc1 [Compound 68],100 nM,

Structure (SMILES),IC50 (full-length human Cal1 [1]),other results
CCOC(=O)[C@H]1O[C@@H]1C(=O)NC1(C(=O)NCCCCNS(=O)(=O)c2ccc(F)cc2)CCCCC1 [Compound 69],> 1000 nM,
CCOC(=O)[C@H]1O[C@@H]1C(=O)N[C@@H](CC(C)C)C(=O)Nc1nc(-c2ccc(F)cc2)cs1 [Compound 70],> 1000 nM,
CCOC(=O)[C@H]1O[C@@H]1C(=O)N[C@@H](CC(C)C)C(=O)N(C)c1nc(-c2ccc(F)cc2)cs1 [Compound 71],> 1000 nM,
CC(C)C[C@H](NC(=O)[C@H]1O[C@@H]1C(=O)O)C(=O)N(C)c1nc(-c2ccc(F)cc2)cs1 [Compound 72],200 nM,
CCOC(=O)[C@@H]1O[C@H]1C(=O)NC(C)C [Compound 73],> 1000 nM,
CC(C)NC(=O)[C@@H]1O[C@H]1C(=O)O [Compound 74],> 1000 nM,
CCOC(=O)[C@@H]1O[C@H]1C(=O)N[C@@H](CC(C)C)C(=O)Nc1nc(-c2ccc(F)cc2)cs1 [Compound 75],> 1000 nM,
CCOC(=O)[C@@H]1O[C@H]1C(N)=O [Compound 76],> 1000 nM,
CCOC(=O)[C@@H]1O[C@H]1C(=O)N[C@@H](Cc1cnc[nH]1)C(=O)Nc1nc(-c2ccc(F)cc2)cs1 [Compound 77],> 1000 nM,
CCOC(=O)[C@H]1O[C@@H]1C(=O)N[C@@H](Cc1cnc[nH]1)C(=O)Nc1nc(-c2ccc(F)cc2)cs1 [Compound 78],> 1000 nM,
CCOC(=O)[C@@H]1O[C@H]1C(=O)NCc1ccc(CO)cc1 [Compound 79],> 1000 nM,
CCOC(=O)[C@@H]1O[C@H]1C(=O)N[C@@H](CC(C)C)C(=O)Nc1c(F)cccc1F [Compound 80],> 1000 nM,
CCOC(=O)[C@H]1O[C@@H]1C(=O)N[C@@H](CC(C)C)C(=O)Nc1c(F)cccc1F [Compound 81],> 1000 nM,
CCOC(=O)[C@H]1O[C@@H]1C(=O)NCc1ccc(CO)cc1 [Compound 82],> 1000 nM,
O=C(O)[C@H]1O[C@@H]1C(=O)NCc1ccc(CO)cc1 [Compound 83],> 1000 nM,
CCOC(=O)[C@H]1O[C@@H]1C(=O)N[C@@H](CC(C)C)C(=O)Nc1ccccc1 [Compound 84],2500 nM,
CCOC(=O)[C@H]1O[C@@H]1C(=O)N[C@@H](Cc1cnc[nH]1)C(=O)Nc1ccccc1 [Compound 85],> 10000 nM,
CC(C)C[C@H](NC(=O)[C@H]1O[C@@H]1C(=O)O)C(=O)NCc1cn(-c2ccc(F)cc2)nn1 [Compound 86],30 nM,
CC(C)C[C@H](NC(=O)[C@H]1O[C@@H]1C(=O)O)C(=O)NCc1cn(-c2ccc(S(N)(=O)=O)cc2)nn1 [Compound 87],50 nM,
C#CCNC(=O)[C@H](CC(C)C)NC(=O)[C@H]1O[C@@H]1C(=O)O [Compound 88],275 nM,
